{"source": "ChEMBL document CHEMBL4665648", "about": "“Potent and selective inhibitors of receptor-interacting protein kinase 1 that lack an aromatic back pocket group” (Bioorg Med Chem Lett, 2019)", "key": {"[1]": {"molecular_target": "Receptor-interacting serine/threonine-protein kinase 2 (Homo sapiens) (UniProt O43353)", "sequence (O43353 whole entry, the tested form may be a part)": "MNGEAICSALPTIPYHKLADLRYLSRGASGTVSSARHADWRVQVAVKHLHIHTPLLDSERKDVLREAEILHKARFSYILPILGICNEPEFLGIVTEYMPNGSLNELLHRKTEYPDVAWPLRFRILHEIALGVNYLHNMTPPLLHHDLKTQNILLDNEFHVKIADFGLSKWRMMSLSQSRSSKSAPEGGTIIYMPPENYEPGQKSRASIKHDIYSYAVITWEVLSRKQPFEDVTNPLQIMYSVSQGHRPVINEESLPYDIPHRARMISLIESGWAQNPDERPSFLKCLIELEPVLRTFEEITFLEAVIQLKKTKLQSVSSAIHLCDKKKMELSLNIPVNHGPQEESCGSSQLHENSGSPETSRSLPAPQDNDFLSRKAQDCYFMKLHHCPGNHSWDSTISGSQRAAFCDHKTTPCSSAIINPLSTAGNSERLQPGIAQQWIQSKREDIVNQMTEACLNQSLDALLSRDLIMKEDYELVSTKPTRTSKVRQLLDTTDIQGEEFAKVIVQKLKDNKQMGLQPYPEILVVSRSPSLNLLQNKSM", "experiment": "Inhibition of tracer 178 binding to recombinant human His-tagged RIPK2 (1 to 299 residues) expressed in insect expression system at 10 uM incubated for 60 mins by Lanthascreen assay relative to control"}, "[2]": {"molecular_target": "LIM domain kinase 1 (Homo sapiens) (UniProt P53667)", "experiment": "Inhibition of tracer 236 binding to recombinant human His-tagged LIMK1 (285 to 638 residues) expressed in baculovirus expression system at 10 uM incubated for 60 mins by Lanthascreen assay relative to control"}, "[3]": {"molecular_target": "MAP kinase-activated protein kinase 5 (Homo sapiens) (UniProt Q8IW41)", "experiment": "Inhibition of recombinant human His-tagged full length PRAK expressed in baculovirus expression system using Ser/Thr 04 as substrate at 10 uM incubated for 60 mins by Z'-lyte assay relative to control"}, "[4]": {"molecular_target": "T1, Receptor-interacting serine/threonine-protein kinase 1 (Homo sapiens, UniProt Q13546)", "T1 sequence (Q13546 whole entry)": "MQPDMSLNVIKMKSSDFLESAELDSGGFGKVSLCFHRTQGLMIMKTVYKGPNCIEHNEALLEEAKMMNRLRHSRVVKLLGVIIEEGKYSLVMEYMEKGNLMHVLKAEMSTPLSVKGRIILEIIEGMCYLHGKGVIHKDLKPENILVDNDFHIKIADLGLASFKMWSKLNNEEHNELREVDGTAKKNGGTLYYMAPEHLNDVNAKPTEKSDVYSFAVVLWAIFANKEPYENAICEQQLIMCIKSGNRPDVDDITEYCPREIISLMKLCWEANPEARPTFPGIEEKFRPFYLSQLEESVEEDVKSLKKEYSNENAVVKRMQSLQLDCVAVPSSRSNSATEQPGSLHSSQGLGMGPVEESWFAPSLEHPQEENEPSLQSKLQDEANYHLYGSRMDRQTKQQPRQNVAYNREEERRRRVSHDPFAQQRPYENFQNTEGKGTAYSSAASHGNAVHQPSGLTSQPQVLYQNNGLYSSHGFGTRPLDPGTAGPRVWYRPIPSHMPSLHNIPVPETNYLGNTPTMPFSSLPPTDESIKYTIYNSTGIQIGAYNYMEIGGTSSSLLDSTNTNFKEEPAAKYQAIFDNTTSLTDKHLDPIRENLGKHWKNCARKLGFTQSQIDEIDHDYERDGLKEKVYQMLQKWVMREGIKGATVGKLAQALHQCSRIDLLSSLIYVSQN", "experiment": "Inhibition of recombinant human His/GST-tagged RIPK1 (2 to 257 residues) expressed in insect expression system incubated for 2 hrs by fluorescence polarization assay", "settings": "read-out: Ki(app)"}, "[5]": {"molecular_target": "Serine/threonine-protein kinase B-raf (Homo sapiens) (UniProt P15056)", "experiment": "Inhibition of recombinant human GST-tagged full length BRAF expressed in baculovirus expression system using Ser/Thr 03 as substrate at 10 uM incubated for 60 mins by Z'-Lyte assay relative to control"}, "[6]": {"molecular_target": "Myosin light chain kinase, smooth muscle (Homo sapiens) (UniProt Q15746)", "experiment": "Inhibition of tracer 236 binding to recombinant human GST-tagged MYLK (1428 to 1771 residues) expressed in baculovirus expression system at 10 uM incubated for 60 mins by Lanthascreen assay relative to control"}, "[7]": {"molecular_target": "Homeodomain-interacting protein kinase 1 (Homo sapiens) (UniProt Q86Z02)", "experiment": "Inhibition of recombinant human N-terminal GST-tagged HIPK1 (158 to 555 residues) expressed in baculovirus expression system using Ser/Thr 09 as substrate at 10 uM incubated for 60 mins by Z'-Lyte assay relative to control"}, "[8]": {"molecular_target": "RAC-beta serine/threonine-protein kinase (Homo sapiens) (UniProt P31751)", "sequence (P31751 whole entry)": "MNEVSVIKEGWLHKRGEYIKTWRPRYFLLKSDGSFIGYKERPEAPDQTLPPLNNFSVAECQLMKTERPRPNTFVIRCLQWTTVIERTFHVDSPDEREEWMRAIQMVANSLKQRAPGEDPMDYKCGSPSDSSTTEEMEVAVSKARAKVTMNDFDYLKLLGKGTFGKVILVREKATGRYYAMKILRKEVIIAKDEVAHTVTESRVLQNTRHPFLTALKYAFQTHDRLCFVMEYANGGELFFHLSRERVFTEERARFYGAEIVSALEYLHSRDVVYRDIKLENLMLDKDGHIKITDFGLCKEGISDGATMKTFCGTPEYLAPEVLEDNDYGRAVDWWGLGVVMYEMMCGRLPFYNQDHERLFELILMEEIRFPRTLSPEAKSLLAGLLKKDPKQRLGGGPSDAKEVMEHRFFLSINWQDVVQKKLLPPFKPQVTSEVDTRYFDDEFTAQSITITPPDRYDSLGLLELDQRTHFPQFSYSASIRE", "experiment": "Inhibition of recombinant human His-tagged full length AKT2 expressed in baculovirus expression system using Ser/Thr 06 as substrate at 10 uM incubated for 60 mins by Z'-Lyte assay relative to control"}, "[9]": {"molecular_target": "CDK9/cyclin T1 (Homo sapiens) (UniProt O60563+P50750)", "experiment": "Inhibition of recombinant human His-tagged full length CDK9/Cyclin T1 expressed in baculovirus expression system using CDK7/9tide as substrate at 10 uM incubated for 60 mins by Adapta assay relative to control"}, "[10]": {"molecular_target": "Misshapen-like kinase 1 (Homo sapiens) (UniProt Q8N4C8)", "sequence (Q8N4C8 whole entry, looked up, the tested form may be a part)": "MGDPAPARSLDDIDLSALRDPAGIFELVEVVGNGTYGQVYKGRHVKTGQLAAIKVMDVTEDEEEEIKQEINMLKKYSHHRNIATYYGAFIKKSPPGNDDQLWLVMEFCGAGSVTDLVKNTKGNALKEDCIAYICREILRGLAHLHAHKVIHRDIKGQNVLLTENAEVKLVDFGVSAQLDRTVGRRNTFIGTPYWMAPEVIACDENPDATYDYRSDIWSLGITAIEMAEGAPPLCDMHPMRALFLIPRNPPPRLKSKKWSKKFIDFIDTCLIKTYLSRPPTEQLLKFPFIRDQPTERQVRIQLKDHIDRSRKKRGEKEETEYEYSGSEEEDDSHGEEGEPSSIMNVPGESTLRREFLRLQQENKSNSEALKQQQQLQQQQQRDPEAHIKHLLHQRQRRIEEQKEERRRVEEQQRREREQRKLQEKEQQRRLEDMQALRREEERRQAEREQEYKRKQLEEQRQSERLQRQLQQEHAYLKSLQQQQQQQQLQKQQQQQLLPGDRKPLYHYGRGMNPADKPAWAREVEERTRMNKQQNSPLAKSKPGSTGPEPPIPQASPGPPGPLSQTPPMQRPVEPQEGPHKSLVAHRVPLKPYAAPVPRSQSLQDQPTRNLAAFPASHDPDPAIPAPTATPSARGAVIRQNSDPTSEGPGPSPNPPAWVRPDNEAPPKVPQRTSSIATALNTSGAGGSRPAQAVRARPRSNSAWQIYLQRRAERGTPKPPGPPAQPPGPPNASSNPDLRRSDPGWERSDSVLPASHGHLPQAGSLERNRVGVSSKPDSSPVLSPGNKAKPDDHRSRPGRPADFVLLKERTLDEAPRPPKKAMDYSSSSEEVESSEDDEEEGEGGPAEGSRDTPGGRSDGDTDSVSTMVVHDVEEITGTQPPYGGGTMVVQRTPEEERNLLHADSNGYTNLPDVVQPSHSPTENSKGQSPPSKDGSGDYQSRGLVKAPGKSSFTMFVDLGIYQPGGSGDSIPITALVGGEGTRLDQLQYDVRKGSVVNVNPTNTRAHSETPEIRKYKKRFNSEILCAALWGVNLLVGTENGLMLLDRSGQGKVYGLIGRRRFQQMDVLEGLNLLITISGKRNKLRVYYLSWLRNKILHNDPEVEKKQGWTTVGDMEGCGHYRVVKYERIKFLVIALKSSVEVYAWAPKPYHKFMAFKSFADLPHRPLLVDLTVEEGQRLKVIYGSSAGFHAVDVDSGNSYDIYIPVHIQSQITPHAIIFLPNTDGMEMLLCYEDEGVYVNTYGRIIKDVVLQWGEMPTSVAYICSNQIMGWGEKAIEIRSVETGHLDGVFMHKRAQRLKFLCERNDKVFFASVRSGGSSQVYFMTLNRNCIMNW", "experiment": "Inhibition of recombinant human GST-tagged MINK1 (1 to 320 residues) expressed in baculovirus expression system using Ser/Thr 07 as substrate at 10 uM incubated for 60 mins by Z'-lyte assay relative to control"}, "[11]": {"molecular_target": "Serine/threonine-protein kinase Nek6 (Homo sapiens) (UniProt Q9HC98)", "sequence (Q9HC98 whole entry)": "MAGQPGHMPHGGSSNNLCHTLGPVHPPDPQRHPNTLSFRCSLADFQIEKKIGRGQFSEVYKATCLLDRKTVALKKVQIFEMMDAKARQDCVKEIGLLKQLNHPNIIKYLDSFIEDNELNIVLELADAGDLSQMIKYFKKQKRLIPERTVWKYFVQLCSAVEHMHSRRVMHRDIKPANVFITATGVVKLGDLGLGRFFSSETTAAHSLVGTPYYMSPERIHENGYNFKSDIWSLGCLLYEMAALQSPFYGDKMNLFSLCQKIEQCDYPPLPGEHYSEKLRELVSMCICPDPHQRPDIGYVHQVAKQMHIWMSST", "experiment": "Inhibition of recombinant human GST-tagged full length NEK6 expressed in insect expression system using Ser/Thr 22 as substrate at 10 uM incubated for 60 mins by Z'-lyte assay relative to control"}, "[12]": {"molecular_target": "Phosphatidylinositol 3-kinase C2 domain-containing subunit gamma (Homo sapiens) (UniProt O75747)", "sequence (O75747 whole entry, the tested form may be a part)": "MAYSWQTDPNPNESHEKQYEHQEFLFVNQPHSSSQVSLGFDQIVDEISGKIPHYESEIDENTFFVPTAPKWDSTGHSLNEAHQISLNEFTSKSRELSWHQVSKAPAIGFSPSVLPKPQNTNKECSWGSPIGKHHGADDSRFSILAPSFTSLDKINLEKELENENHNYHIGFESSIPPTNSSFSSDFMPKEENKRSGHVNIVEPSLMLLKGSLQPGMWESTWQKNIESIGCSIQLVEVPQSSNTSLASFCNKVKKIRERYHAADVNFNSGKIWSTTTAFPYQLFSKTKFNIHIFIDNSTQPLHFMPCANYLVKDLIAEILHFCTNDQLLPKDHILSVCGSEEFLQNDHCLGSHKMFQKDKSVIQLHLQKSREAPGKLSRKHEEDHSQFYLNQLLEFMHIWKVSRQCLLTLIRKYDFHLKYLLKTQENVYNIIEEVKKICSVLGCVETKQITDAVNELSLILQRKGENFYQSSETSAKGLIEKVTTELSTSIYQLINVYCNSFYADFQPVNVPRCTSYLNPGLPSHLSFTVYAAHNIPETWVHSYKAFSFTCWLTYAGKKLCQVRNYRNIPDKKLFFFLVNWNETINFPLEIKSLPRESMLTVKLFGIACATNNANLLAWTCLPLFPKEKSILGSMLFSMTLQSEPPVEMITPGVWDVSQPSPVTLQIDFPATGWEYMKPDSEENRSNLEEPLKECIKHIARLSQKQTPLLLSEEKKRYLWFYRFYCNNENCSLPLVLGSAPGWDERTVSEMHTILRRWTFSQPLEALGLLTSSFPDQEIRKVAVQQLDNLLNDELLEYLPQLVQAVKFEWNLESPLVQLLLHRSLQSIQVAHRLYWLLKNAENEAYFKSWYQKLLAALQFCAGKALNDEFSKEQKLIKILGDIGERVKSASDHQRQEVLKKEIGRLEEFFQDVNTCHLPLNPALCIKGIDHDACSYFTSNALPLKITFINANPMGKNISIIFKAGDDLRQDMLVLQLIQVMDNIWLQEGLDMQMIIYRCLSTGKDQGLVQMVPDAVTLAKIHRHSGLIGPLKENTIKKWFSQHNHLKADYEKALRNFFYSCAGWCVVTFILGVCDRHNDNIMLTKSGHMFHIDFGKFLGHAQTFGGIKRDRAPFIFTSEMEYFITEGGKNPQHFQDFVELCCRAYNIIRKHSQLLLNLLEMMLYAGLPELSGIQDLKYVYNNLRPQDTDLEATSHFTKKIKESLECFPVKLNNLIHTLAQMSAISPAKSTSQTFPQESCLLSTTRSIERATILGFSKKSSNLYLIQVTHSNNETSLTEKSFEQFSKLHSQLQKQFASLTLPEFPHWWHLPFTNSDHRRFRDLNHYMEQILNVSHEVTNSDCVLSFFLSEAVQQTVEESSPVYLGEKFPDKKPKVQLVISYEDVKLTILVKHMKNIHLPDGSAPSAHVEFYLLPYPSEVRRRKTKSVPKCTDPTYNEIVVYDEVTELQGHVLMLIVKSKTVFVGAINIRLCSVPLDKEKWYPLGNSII", "experiment": "Inhibition of recombinant human N-terminal GST-tagged PI3K-gamma (468 to 1203 residues) expressed in insect expression system using PI lipid kinase substrate mixture as substrate at 10 uM incubated for 60 mins by Adapta assay relative to control"}, "[13]": {"molecular_target": "Calcium/calmodulin-dependent protein kinase type II subunit alpha (Homo sapiens) (UniProt Q9UQM7)", "experiment": "Inhibition of recombinant human His-tagged full length CAMK2alpha expressed in baculovirus expression system using Ser/Thr 04 as substrate at 10 uM incubated for 60 mins by Z'-Lyte assay relative to control"}, "[14]": {"molecular_target": "Glycogen synthase kinase-3 beta (Homo sapiens) (UniProt P49841)", "sequence (P49841 whole entry, looked up)": "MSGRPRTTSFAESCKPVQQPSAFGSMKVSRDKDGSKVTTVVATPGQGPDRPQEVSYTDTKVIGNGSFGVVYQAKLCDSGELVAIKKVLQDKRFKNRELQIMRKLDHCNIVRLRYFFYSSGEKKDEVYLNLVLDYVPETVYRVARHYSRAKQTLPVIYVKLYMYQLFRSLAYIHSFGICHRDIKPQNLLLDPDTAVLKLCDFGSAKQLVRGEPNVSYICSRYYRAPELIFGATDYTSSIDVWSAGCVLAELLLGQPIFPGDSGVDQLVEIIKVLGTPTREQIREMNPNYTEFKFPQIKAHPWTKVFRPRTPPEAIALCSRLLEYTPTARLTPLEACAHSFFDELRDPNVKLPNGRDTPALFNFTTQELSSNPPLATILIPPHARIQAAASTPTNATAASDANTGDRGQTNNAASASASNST", "experiment": "Inhibition of recombinant human N-terminal GST-tagged full length GSK3beta expressed in baculovirus expression system using Ser/Thr 09 as substrate at 10 uM incubated for 60 mins by Z'-Lyte assay relative to control"}, "[15]": {"molecular_target": "Tyrosine-protein kinase JAK3 (Homo sapiens) (UniProt P52333)", "experiment": "Inhibition of recombinant human GST-tagged JAK3 (781 to 1124 residues) expressed in baculovirus expression system using Tyr 06 as substrate at 10 uM incubated for 60 mins by Z'-lyte assay relative to control"}, "[16]": {"molecular_target": "Proto-oncogene tyrosine-protein kinase receptor Ret (Homo sapiens) (UniProt P07949)", "experiment": "Inhibition of recombinant human GST-tagged full length RET (658 to 1114 residues) expressed in baculovirus expression system using Tyr 02 as substrate at 10 uM incubated for 60 mins by Z'-Lyte assay relative to control"}, "[17]": {"molecular_target": "Mitogen-activated protein kinase 14 (Homo sapiens) (UniProt Q16539)", "sequence (Q16539 whole entry)": "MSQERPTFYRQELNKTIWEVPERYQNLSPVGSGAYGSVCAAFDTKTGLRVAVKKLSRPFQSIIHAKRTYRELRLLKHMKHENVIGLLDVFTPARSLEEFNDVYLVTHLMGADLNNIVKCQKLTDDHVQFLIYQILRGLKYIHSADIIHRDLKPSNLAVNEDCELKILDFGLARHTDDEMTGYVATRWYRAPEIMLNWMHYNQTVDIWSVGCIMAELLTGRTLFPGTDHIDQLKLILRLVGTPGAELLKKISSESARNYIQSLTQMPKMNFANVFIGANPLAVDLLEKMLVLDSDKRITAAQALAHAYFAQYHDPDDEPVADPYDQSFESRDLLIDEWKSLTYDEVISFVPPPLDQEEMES", "experiment": "Inhibition of recombinant human GST-tagged full length p38 alpha expressed in Escherichia coli expression system using Ser/Thr 15 as substrate at 10 uM incubated for 60 mins by Z'-Lyte assay relative to control"}, "[18]": {"molecular_target": "Tyrosine-protein kinase Blk (Homo sapiens) (UniProt P51451)", "experiment": "Inhibition of recombinant human His-tagged full length BLK expressed in baculovirus expression system using Tyr 01 as substrate at 10 uM incubated for 60 mins by Z'-Lyte assay relative to control"}}, "data": [{"smiles": "CN1C(=O)[C@@H](NC(=O)c2n[nH]c3ncc(C(F)(F)C(F)(F)F)cc23)COc2ccccc21", "values": [{"measurement": "inhibition", "setting": "[1]", "result": -1, "unit": "%"}, {"measurement": "inhibition", "setting": "[2]", "result": 5, "unit": "%"}, {"measurement": "inhibition", "setting": "[3]", "result": 5, "unit": "%"}, {"measurement": "Ki", "setting": "[4]", "result": 6, "unit": "nM"}, {"measurement": "inhibition", "setting": "[5]", "result": 26.5, "unit": "%"}, {"measurement": "inhibition", "setting": "[6]", "result": 7.5, "unit": "%"}, {"measurement": "inhibition", "setting": "[7]", "result": 5, "unit": "%"}, {"measurement": "inhibition", "setting": "[8]", "result": 7.5, "unit": "%"}, {"measurement": "inhibition", "setting": "[9]", "result": 6, "unit": "%"}, {"measurement": "inhibition", "setting": "[10]", "result": 12.5, "unit": "%"}, {"measurement": "inhibition", "setting": "[11]", "result": 4, "unit": "%"}, {"measurement": "inhibition", "setting": "[12]", "result": -5, "unit": "%"}, {"measurement": "inhibition", "setting": "[13]", "result": 1, "unit": "%"}, {"measurement": "inhibition", "setting": "[14]", "result": 14.5, "unit": "%"}, {"measurement": "inhibition", "setting": "[15]", "result": 1.5, "unit": "%"}, {"measurement": "inhibition", "setting": "[16]", "result": 4, "unit": "%"}, {"measurement": "inhibition", "setting": "[17]", "result": 0.5, "unit": "%"}, {"measurement": "inhibition", "setting": "[18]", "result": 2, "unit": "%"}]}]}
